Data on one molecule can be found in ChEMBL document CHEMBL5728232, “Multi-functionalized polysaccharide compounds and use thereof for targeting the cation-independent mannose 6-phosphate receptor” (2021).

In this experiment the target is Cation-independent mannose-6-phosphate receptor (Homo sapiens, UniProt P11717). Nature of the experiment: Binding of the M6P Analogs of the Invention with CI-M6PR: 96-Well plates (Maxisorp Nunc) are incubated overnight at 4° C. with 200 μl of PMP (pentamannose 6-phosphate) at the concentration of 200 μg·ml−1, in carbonate buffer (NaHCO3/Na2CO3 at 0.1M, pH 9.6). The following day, the solution containing the residual PMP is discarded and the wells are saturated, for 1 h at ambient temperature, with 360 μl of 1% gelatin (Type A from Porcine Skin) diluted in PBS (1.9 mM NaH2PO4, 8.1 mM Na2PO4 and 154 mM NaCl, pH 7.4). The wells are then rinsed five times with PBS to which 0.2% gelatin has been added. All the washes and also the dilutions are carried out in the solution of PBS to which 0.2% gelatin has been added. The M6P analogs to be tested at the various concentrations (from 10−2 to 10−7 M) are pre-incubated in the presence of pre-biotinylated CI-M6PR (M6PRb) ([…]) for 20 min, then 200 μl of the mixture are incubated in the wells for 2 h, at ambient temperature. After three washes, the wells are incubated for 1 h with a streptavidin-peroxidase solution (250 μl per well; 3.10−8 M). After three more washes, 200 μl of a solution of OPD (o-phenylenediamine, 1 mg·ml−1 in citrate buffer, pH 5.0, and 1 μl 30% H2O2.ml−1; Sigma Aldrich) are added. […].
Cation-independent mannose-6-phosphate receptor, sequence (P11717 whole entry): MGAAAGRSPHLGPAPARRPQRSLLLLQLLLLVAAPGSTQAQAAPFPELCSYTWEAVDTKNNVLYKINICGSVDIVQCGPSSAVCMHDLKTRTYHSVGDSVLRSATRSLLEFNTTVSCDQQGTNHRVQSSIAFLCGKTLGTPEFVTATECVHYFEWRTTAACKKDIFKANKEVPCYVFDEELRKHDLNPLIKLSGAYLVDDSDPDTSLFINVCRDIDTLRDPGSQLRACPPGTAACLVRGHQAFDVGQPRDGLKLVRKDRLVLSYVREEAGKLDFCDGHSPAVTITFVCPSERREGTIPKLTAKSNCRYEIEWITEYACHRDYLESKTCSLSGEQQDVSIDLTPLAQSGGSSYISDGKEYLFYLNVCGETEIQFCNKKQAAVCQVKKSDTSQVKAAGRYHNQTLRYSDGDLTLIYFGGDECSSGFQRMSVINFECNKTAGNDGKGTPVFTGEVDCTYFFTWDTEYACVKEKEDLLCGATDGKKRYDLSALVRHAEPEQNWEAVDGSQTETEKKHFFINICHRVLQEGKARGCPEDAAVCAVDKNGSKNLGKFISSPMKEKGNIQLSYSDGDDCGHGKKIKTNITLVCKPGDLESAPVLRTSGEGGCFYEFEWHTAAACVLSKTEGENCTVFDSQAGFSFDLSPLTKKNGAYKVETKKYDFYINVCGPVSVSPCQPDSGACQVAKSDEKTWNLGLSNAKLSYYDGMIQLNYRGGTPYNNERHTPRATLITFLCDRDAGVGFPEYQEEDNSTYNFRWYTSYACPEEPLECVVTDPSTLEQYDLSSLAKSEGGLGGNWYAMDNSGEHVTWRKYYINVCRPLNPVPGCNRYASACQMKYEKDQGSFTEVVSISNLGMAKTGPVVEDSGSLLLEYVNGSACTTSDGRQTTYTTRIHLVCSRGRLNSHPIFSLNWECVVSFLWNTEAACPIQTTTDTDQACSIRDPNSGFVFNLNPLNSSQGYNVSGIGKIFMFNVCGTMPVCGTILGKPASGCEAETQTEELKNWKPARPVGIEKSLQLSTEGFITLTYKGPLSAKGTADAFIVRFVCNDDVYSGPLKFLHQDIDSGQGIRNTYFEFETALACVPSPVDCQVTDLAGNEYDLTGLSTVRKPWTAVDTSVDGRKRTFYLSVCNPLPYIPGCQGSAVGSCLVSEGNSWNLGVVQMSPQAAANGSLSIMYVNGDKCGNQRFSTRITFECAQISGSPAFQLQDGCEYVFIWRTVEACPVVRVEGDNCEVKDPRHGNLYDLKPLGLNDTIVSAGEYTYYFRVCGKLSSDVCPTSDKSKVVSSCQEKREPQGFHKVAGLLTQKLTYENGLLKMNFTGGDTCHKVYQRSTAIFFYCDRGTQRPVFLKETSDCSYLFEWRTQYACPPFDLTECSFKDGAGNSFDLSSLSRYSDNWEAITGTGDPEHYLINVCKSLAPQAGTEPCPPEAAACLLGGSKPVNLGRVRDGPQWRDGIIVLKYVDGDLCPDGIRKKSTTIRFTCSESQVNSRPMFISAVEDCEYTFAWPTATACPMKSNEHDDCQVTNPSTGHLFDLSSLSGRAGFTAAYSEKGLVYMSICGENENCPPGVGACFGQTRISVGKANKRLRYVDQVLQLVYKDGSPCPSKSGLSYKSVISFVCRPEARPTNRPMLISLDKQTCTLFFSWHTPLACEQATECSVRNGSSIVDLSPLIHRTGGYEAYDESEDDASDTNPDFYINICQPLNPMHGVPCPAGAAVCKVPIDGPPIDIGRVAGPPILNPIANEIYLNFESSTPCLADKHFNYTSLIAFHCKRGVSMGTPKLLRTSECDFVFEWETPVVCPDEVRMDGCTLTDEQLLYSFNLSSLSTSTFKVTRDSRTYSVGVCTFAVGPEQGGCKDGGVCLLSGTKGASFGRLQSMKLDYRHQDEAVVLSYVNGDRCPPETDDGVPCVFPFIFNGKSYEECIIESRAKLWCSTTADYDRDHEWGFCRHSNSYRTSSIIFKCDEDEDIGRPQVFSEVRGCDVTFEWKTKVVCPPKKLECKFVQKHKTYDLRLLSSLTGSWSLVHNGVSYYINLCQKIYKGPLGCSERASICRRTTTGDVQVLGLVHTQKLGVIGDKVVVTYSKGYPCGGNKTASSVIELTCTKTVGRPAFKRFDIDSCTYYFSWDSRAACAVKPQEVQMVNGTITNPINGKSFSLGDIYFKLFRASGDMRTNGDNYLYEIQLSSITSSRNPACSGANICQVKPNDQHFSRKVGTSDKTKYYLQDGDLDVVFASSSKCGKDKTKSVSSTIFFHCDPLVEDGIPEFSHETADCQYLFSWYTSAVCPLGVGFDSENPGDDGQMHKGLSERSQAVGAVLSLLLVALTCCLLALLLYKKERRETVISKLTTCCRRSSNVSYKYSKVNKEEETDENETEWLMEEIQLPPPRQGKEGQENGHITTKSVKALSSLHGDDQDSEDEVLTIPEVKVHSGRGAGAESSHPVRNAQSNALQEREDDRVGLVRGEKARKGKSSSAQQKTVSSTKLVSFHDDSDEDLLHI

In the case of `NCCO[C@H]1OC(CO)[C@@H](O)[C@H](O)C1O[C@H]1OC(CCP(=O)(O)O)[C@@H](O)[C@H](O)C1O` (stereo partly specified), the IC50 came out at 5 µM.
